The values that follow come from patent US9066938B2, “GPBP-1 inhibition and its therapeutic use” (Fibrostatin S.L., priority 2012, dated 2015).

The structures appear in SMILES notation.

Data set [1] deals with ovarian cancer cells (OVCAR-3). Put plainly: Response of OVCAR-3 ovarian cancer cells to T12. Type of data set: cell-based. The conditions noted are these: cells that did not increase GPBP expression in response to doxorubicin.
Data set [2] concerns PARP cleavage in A549 cells. Put plainly: Flow cytometry of cleaved PARP (caspase-3-mediated apoptosis) in A549 cells. Type of data set: cell-based, human. The conditions noted are these: doxorubicin 1 μM, T12 50 μM, 36 h. The protocol:
FIG. 5. T12 enhances doxorubicin-induced caspase 3-mediated apoptosis. A549 cells were incubated with doxorubicin (1 μM) and/or T12 (50 μM) for 36 h. Subsequently, cells were stained with a PE conjugated antibody specific for human PARP-cleaved fragments and further analyzed by flow cytometry. Data are expressed as fold respect to untreated control cells. Shown is a representative experiment.
Caspase-3 activation in A549 cells was evaluated by flow cytometry using a human anti-cleaved PARP antibody conjugated to PE (BD Biosciences). Briefly, after treatment, the cells were collected by centrifugation and suspended in Perm/Wash™ (BD Biosciences) buffer for 20 min, washed and then incubated for 30 min with the antibody. Subsequently, the cells were rinsed and further analyzed by flow cytometry (BD FacsVerse™ cytometer, BD Biosciences).

Data set [3] in a line: Synergism of T12 with paclitaxel (no details given). The conditions noted are these: T12 plus paclitaxel.
Data set [4] deals with A549 cells (CSC/SP and CTAC/MP compartments). Put plainly: Doxorubicin content of A549 cells by flow cytometry. To be noted: doxorubicin 1 μM plus T12 50 μM. Format: cell-based, human. As for the experimental part: FIG. 10. T12 enhances doxorubicin accumulation, preferentially in CSC/SP cells. A549 cultures were untreated (control) or treated with doxorubicin (1 μM) and/or T12 (50 μM). A, doxorubicin content was measured by flow cytometry using the PE channel. Represented are fluorescence intensity values. The increased amount of doxorubicin is evidenced by the rightwards displacement of the fluorescence peak. B, CSC/SP and CTAC/MP compartments were identified as in FIG. 9 and the doxorubicin content of cells was determined as in A.
A549 cells were suspended at 10^6 cells/mL in culture medium containing 10 mM Hepes (previously warmed at 37° C.). Hoechst 33342 was added at 5 μg/mL and cells incubated in a 37° C. bath with shaking for 90 min in the dark. Before incubation (and after staining) an aliquot of 1 mL was taken and verapamil (50 μM) and fumitremorgin C (10 μM) added. Cells were centrifuged at 300×g for 5 min at 4° C. and suspended in cold medium with 10 mM Hepes. Cells were kept at 4° C. until analysis. Analysis of Hoechst 33342 efflux was assessed using a Flow Cytometer with incident 350 nm ultraviolet light. The resulting fluorescence was measured at two wavelengths using 424/44 BP and 675 LP filters that allow detection of Hoechst blue and red, respectively. […] Doxorubicin content in either population was estimated with incident 488 nm blue light and 585/40 filter. […]
On the technique in general: Flow cytometry measures light scatter and fluorescence of single cells or particles in a stream.

The next data set relates to A549 cells. Type of data set: cell-based. The protocol:
FIG. 2. […] Cells were seeded in 96-well plates and treated with the indicated compound combinations. The cellular viability (cell number) was measured with alamarBlue® and arbitrary units of fluorescence after 36 h of treatment (vertical axis).
FIG. 7. […] A549 cells were seeded on 96-well culture plates and after 4 h were treated with the indicated concentrations of doxorubicin in absence or presence of T12 (50 μM) and/or CFTR-inhibitor-172 (25 μM). Cells were cultured for additional 36 h and cell viability assessed as in FIG. 2.
A549 human lung adenocarcinoma cancer cells (CLS Cell Lines Service) were used as an ex vivo model for the assessment of anti-tumor activity of specific compounds. Unless otherwise indicated A549 cells were cultured in DMEM: Ham's F12 medium supplemented with 2 mM L-glutamine and 10% fetal bovine serum. A549 cells resistant to doxorubicin (A549-DR) were obtained treating cells with 1 μM for 4 weeks. A549 cells were transfected with a plasmid that expresses GPBP-1 and further selected with G418 (Invitrogen) to obtain a cell line (A549-GPBP) that constitutively expresses GPBP-1.
Cytotoxicity assays were performed with alamarBlue® reagent (Invitrogen) according to manufacturer's instructions. A549 cells were seeded on 96-well culture plates (7,500 cells/well) and allowed to settle during 4 h. Then, cells were cultured with individual peptidomimetics at concentrations ranging from 0 to 50 μM, in presence of doxorubicin at concentrations ranging from 0 to 10 μM for 36 h. JLSM cells were harvested by treatment with 0.25% trypsin (Lonza) and plated on collagen I coated 96-well black culture plate (Perkin Elmer) at a density of 10.000 cells per cm^2. After 4 h settling, cells were treated with different peptidomimetics (with or without doxorubicin) for 36 h. Subsequently alamarBlue® reagent was added and incubation maintained for 3 h. Fluorescence was measured using 560EX nm/590EM nm filter settings with a SpectraMax GeminiXPS (Molecular Devices). Blank wells containing media were used to determine background fluorescence.
The activity shown for each compound in Table 1 is the factor by which doxorubicin LC50 is reduced by the compound at a 50-μM concentration in A549 cell cultures. […] The symbols −, −/+, +, ++, +++, ++++ in the third column are used to show relative activities of compounds in a simplified way.

Turning to `COc1ccc(-c2ccc(-c3cccc(C)c3)c(C)c2)c(CCC(=O)O)c1` [T12, 3-[4″-methoxy-3,2′-dimethyl-(1,1′;4′,1″)terphenyl-2″-yl] propionic acid], in data set [1], the “responsiveness of OVCAR-3 cells to the compound” value is recorded as “not responsive”. In data set [2], the “doxorubicin-induced PARP cleavage” value is on record as “enhanced”. Further, the “synergism of T12 with paclitaxel” value in data set [3] was “synergistic”. For the same compound, the “doxorubicin content of cells versus doxorubicin only” value in data set [4] is reported as “higher doxorubicin content”. In addition, the “A549 cell viability, compound without doxorubicin” value with A549 cells (36 h, alamarBlue) was “did not alter cell viability”. Besides, the “Activity as enhancer of doxorubicin-induced cell death, relative activity symbol” value in the data set with A549 cells (compound at 50 μM, A549 cell cultures) is listed as “+++”. In addition, in the data set on A549 cells (compound combined with doxorubicin), the “effect on doxorubicin LC50 for A549 cells” value was “reduced doxorubicin LC50 for A549 cells in a dose-dependent manner”.
